Measured values published in PMC12675387, “Receptor interaction profiles of 4-alkoxy-2,6-dimethoxyphenethylamines (Ψ derivatives) and related amphetamines” (Frontiers in Pharmacology, 2025).

Columns and labels:
human TAAR1 = target: T1, human TAAR1 (Homo sapiens, UniProt Q96RJ0); test: Activation potency at human TAAR1 (cAMP assay, HEK 293 cells); assay type: cell-based
T1 construct: expressed in transfected cells; host or cells: HEK 293 cells
T1 sequence (Q96RJ0 1-339): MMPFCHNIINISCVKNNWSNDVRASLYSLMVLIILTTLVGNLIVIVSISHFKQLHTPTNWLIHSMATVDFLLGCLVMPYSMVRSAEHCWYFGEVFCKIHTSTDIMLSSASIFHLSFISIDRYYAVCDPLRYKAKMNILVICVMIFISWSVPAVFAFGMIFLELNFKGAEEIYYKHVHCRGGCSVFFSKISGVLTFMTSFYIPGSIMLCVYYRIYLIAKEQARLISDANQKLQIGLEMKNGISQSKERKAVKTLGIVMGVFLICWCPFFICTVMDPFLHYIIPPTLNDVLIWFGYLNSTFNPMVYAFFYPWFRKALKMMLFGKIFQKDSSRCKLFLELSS
Method: The activation potency at the human TAAR1 was determined as previously described by [Luethi et al. (2018)]. In summary, recombinant HEK 293 cells stably transfected with the human TAAR1 were grown in culture flasks composed of 30 mL high glucose DMEM with 10% heat inactivated fetal calf serum, […] Geneticin, and […] hygromycin B at 37 °C and 5% CO2. The cells were grown to 80%–90% confluency before collection. The cells were washed with phosphate-buffer saline (PBS) and 5 mL of trypsin/EDTA solution were added for 5 min at 37 °C to detach the cells from the flask. Then, 45 mL of fresh medium were added to the flask and the total mixture was put into a falcon tube, which was centrifuged for 3 min at 900 rpm at room temperature. The supernatant was aspirated, and the remaining cell pellet was resuspended in fresh medium to a concentration of 5 × 10^5 cells per mL. Next, 100 μL of the cell mixture was transferred to a 96 well plate (BIOCOAT 6640, Becton Dickinson, Allschwil, Switzerland) and incubated for 20 h at 37 °C. For the cAMP assay, the medium was removed and replaced with 50 μL PBS lacking calcium or magnesium ions. The PBS was extracted via snap inversion and the plate was gently tapped on tissue to remove any remaining PBS solution. The plate was then incubated with Krebs-Ringer Bicarbonate buffer (90 μL/well; KRB, Sigma-Aldrich) containing 1 mM IBMX for 1 h at 37 °C and 5% CO2/95% air. Test compounds were investigated in duplicate at various concentrations ranging from 300 pM to 30 μM. A cAMP standard curve (concentration range of 0.13 nM–10 μM) was included on each 96 well plate. Additionally, a reference plate was used containing RO5256390, β-phenylethylamine and p-tyramine. Cells were incubated with either 30 μL of compound solution, β-phenylethylamine (which represented the maximal response) or a basal control in PBS (supplemented with 1 mM IBMX) for 40 min at 37 °C. Thereafter, the cells were incubated with 50 μL of 3× detection mix solution (consisting of Ru-cAMP Alexa700 anti-cAMP antibody and lysis buffer) for 40 min at 37 °C, while covered with black lids and under forceful shaking. The fluorescence (456 nm excitation wavelength; 630 and 700 nm emission wavelengths) was measured using a NanoScan reader (Innovate Optische Messtechnik, Berlin, Germany) and the FRET signal was calculated using the following equation: FRET (700 nm) – P × FRET (630 nm). P was equal to Ru (700 nm)/Ru (630 nm).

hDAT = hDAT (Homo sapiens, UniProt Q01959); test: Radioligand binding, DAT ([3H]WIN35,428)
hDAT, sequence (Q01959 whole entry): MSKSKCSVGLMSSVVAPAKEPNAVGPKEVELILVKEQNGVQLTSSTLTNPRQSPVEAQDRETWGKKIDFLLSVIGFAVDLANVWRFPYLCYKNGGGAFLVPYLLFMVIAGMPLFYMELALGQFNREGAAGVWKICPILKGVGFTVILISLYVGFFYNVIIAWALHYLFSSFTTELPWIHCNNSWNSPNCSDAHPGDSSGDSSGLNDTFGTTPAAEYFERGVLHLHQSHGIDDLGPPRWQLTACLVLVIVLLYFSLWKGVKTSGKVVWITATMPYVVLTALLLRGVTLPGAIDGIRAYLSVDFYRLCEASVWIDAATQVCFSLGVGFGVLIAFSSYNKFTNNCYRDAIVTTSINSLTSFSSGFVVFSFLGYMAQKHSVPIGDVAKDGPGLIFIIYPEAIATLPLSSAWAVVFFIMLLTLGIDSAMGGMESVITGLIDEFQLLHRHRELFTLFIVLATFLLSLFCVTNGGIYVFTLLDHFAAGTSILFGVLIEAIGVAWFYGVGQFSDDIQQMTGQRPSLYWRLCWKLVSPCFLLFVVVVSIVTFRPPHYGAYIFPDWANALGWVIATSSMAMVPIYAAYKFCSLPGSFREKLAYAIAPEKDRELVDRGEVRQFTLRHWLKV

hNET = hNET (Homo sapiens, UniProt P23975); test: Radioligand binding, NET (N-methyl-[3H]nisoxetine)
hNET, sequence (P23975 whole entry): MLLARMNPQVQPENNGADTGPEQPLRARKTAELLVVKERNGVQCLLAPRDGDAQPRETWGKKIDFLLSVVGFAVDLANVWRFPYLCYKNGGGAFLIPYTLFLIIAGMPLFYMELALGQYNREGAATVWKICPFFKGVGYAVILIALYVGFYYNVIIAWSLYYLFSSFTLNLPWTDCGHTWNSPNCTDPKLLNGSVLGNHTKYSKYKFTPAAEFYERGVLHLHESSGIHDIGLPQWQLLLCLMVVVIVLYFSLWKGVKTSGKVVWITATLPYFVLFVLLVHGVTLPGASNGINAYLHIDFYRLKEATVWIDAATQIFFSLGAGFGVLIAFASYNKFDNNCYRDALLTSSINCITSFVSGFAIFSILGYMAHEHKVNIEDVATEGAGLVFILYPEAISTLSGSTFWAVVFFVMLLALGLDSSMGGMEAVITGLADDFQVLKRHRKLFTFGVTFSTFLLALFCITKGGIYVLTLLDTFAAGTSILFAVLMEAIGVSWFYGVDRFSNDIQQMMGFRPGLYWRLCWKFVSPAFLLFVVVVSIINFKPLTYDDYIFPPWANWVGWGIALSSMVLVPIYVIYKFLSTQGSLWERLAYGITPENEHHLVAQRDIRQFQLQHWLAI

h5-HT2A receptor = h5-HT2A receptor (Homo sapiens, UniProt P28223); test: Radioligand binding, 5-HT2A receptor ([3H]ketanserin); conditions: for Selectivity (binding ratio) 5-HT2A/5-HT1A: preference for 5-HT2A (Ki 5-HT1A divided by Ki 5-HT2A); for Selectivity (binding ratio) 5-HT2A/5-HT2C: preference for 5-HT2A (Ki 5-HT2C divided by Ki 5-HT2A)
h5-HT2A receptor, sequence (P28223 whole entry): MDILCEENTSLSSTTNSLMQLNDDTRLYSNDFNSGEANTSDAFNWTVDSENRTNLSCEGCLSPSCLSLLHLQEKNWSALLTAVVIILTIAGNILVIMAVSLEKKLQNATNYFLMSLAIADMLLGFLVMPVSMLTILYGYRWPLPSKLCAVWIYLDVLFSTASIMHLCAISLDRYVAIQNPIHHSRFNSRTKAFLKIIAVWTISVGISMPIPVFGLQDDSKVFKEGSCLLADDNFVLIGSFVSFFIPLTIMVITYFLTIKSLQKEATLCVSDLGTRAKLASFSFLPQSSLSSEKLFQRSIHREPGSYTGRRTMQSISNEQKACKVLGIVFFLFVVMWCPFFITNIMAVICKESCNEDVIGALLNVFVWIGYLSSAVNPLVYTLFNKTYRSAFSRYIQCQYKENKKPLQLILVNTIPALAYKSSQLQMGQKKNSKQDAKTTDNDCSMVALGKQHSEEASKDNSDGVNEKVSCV

h5-HT2C receptor = target: T2, h5-HT2C receptor (Homo sapiens, UniProt P28335); test: Radioligand binding, 5-HT2C receptor ([3H]mesulergine)
T2 sequence (P28335 33-458): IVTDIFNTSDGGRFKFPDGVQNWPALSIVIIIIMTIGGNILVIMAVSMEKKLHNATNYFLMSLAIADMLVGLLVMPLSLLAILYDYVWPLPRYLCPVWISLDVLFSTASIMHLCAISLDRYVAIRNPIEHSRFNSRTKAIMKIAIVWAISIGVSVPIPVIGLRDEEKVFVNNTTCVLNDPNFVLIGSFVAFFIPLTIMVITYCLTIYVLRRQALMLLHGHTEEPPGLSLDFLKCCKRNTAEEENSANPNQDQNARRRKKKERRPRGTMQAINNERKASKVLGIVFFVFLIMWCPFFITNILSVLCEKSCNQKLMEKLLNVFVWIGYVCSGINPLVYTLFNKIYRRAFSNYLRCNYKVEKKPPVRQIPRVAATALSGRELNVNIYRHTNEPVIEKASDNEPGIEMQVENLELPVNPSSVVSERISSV

hD2 receptor = hD2 receptor (Homo sapiens, UniProt P14416); test: Radioligand binding, dopaminergic D2 receptor ([3H]spiperone)
hD2 receptor, sequence (P14416 whole entry): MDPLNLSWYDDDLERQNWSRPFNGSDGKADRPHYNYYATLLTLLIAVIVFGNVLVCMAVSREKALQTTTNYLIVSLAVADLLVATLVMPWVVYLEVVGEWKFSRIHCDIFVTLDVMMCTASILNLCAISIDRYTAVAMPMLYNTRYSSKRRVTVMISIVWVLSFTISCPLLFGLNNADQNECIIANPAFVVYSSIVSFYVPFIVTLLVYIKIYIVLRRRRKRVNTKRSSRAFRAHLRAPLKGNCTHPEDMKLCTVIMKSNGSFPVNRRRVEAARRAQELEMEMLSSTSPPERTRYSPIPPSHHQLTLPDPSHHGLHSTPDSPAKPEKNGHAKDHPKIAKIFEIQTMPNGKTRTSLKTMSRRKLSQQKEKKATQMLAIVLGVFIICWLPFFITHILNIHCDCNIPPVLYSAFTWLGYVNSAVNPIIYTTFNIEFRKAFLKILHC

| Structure (SMILES) | EC50 (human TAAR1) [nM] | Ki (hDAT; DAT Ki) [nM] | Ki (hDAT; hDAT Ki ± SD, [3H]WIN35,428) [nM] | Ki (hNET) [nM] | Ki (h5-HT2A receptor) [nM] | Selectivity (binding ratio) 5-HT2A/5-HT1A (h5-HT2A receptor) | Selectivity (binding ratio) 5-HT2A/5-HT2C (h5-HT2A receptor) | Ki (h5-HT2C receptor) [nM] | Ki (hD2 receptor) [nM] | fold increase in 5-HT2A affinity over the 4-methoxy analog (h5-HT2A receptor; pairs Ψ-2C-O-1/Ψ-2C-O-35 and TMA-6/Ψ-DODFMO) | fold difference in 5-HT2A receptor affinity between Ψ derivative and its 2,4,5-trisubstituted counterpart (h5-HT2A receptor; TMA-6 vs TMA-2, Ψ-2C-O-16 vs 2C-O-16, Ψ-MALM vs MALM: higher affinity of the Ψ derivative) |
| --- | --- | --- | --- | --- | --- | --- | --- | --- | --- | --- | --- |
| COc1cc(OCc2ccccc2)cc(OC)c1CCN [Ψ-2C-O-27, 4-benzyloxy-2,6-dimethoxyphenethylamine] | 3000 | 1300 to 1800 | 1300 | 6200 | 8 ± 1 | 280 | 15 | 110 ± 10 | > 6000 | – | – |
| COc1cc(OC(F)F)cc(OC)c1CC(C)N (stereo not drawn) [Ψ-DODFMO, 4-(2,2-difluoromethoxy)-2,6-dimethoxyamphetamine] | > 30000 | – | > 8500 | > 8800 | 84 ± 23 | 61 | 21 | 1800 | > 6000 | 3–4 fold | – |
| C=CCOc1cc(OC)c(CC(C)N)c(OC)c1 (stereo not drawn) [Ψ-MALM, 4-allyloxy-2,6-dimethoxyamphetamine] | > 30000 | – | > 8500 | > 8800 | 75 ± 11 | >75 | 10 | 780 ± 330 | > 6000 | – | 2–5 fold |
| COc1cc(OCc2ccccc2)cc(OC)c1CC(C)N (stereo not drawn) [Ψ-MBnM, 4-benzyloxy-2,6-dimethoxyamphetamine] | > 30000 | 1300 to 1800 | 1800 | 7100 | 21 ± 2 | – | 13 | 270 ± 50 | > 6000 | – | – |
| COc1cc(OCC(F)F)cc(OC)c1CC(C)N (stereo not drawn) [Ψ-MDFEM, 4-(2,2-difluoroethoxy)-2,6-dimethoxyamphetamine] | 850 ± 500 | – | 5400 | > 8800 | 950 ± 240 | >6 | 10 | 9500 | > 6000 | – | – |
| CCOc1cc(OC)c(CC(C)N)c(OC)c1 (stereo not drawn) [Ψ-MEM, 2,6-dimethoxy-4-ethoxyamphetamine] | 2200 | – | > 8500 | > 8800 | 490 ± 20 | >11 | 10 | 5100 | > 6000 | – | – |
| COc1cc(OCCF)cc(OC)c1CC(C)N (stereo not drawn) [Ψ-MFEM, 2,6-dimethoxy-4-(2-fluoroethoxy)amphetamine] | 1900 | – | > 8500 | > 8800 | 1400 | >4 | 7.1 | 10000 | > 6000 | – | – |
| C=C(C)COc1cc(OC)c(CC(C)N)c(OC)c1 (stereo not drawn) [Ψ-MMALM, 2,6-dimethoxy-4-methallyloxyamphetamine] | 2500 | – | 5700 | > 8800 | 52 ± 10 | >108 | 5.6 | 290 ± 90 | > 6000 | – | – |
| COc1cc(OCC(F)(F)F)cc(OC)c1CC(C)N (stereo not drawn) [Ψ-MTFEM, 2,6-dimethoxy-4-(2,2,2-trifluoroethoxy)amphetamine] | 1100 | – | 6400 | > 8800 | 570 ± 80 | >10 | 9.6 | 5500 | > 6000 | – | – |
